Laboratory results published in BigSolDB 2.1.

CC(C)(C)OC(=O)N[C@@H](CC(N)=O)C(=O)O
solubility (mole fraction)
Conditions	283.15 K	288.15 K	293.15 K	298.15 K	303.15 K	308.15 K	313.15 K	318.15 K	323.15 K
in 2-butanone	0.000534	0.000543	0.000641	0.000673	0.000804	0.000879	0.00109	0.00131	0.00171
in acetone	0.000897	0.000927	0.0012	0.00139	0.00166	0.00201	0.00222	0.00253	0.00308
in acetonitrile	0.000136	0.000177	0.000195	0.000257	0.000313	0.000398	0.000499	0.000665	0.000856
in ethanol	0.00213	0.00253	0.0031	0.00375	0.00454	0.00533	0.00632	0.00776	0.0091
in isobutanol	0.000686	0.000865	0.000918	0.00106	0.0014	0.0018	0.00236	0.00324	0.00421
in isopropanol	0.00136	0.00169	0.00204	0.00252	0.00317	0.00372	0.00433	0.00528	0.00658
in methanol	0.00641	0.0073	0.00842	0.00982	0.0111	0.013	0.0153	0.0172	0.022
in n-butanol	0.000791	0.000839	0.00113	0.00131	0.00172	0.00189	0.00241	0.003	0.00377
in n-pentanol	0.000561	0.000787	0.00102	0.00154	0.00178	0.00227	0.00266	0.00302	0.00364
in n-propanol	0.00105	0.00145	0.00176	0.00195	0.0026	0.00323	0.00386	0.00498	0.00612
in sec-butanol	0.00103	0.00143	0.0017	0.00227	0.00245	0.00299	0.00406	0.00505	0.00619
in water	0.000247	0.000288	0.000359	0.000452	0.000492	0.000617	0.00076	0.000834	0.00107
